Data as given in PubChem BioAssay AID248 (DTP/NCI, 2004).
Where “and” joins values, the source holds several entries; their conditions need not be identical. Identical values can stand only once. Inconclusive results and toxic doses are left out. No stated cut-off is given here; in the data, active means T/C of 150% or more; inactive means T/C below 125%.

Test system: L1210 leukemia ip in BDF1 mice, survival T/C
Experiment: NCI In Vivo Anticancer Drug Screen. Data for tumor model L1210 Leukemia (intraperitoneal) in B6D2F1 (BDF1) mice
Conditions: endpoint: mean survival time, higher = longer survival
How it was run: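 Transplanted-tumor mice were given test agent; controls received vehicle only. Survival readings from the two groups were divided (treated over control).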

[1] = dose: 50.0 mg/kg/injection, schedule: Q01DX009 (ip), vehicle: Klucel (hydroxypropylcellulose) (HPC)
[2] = dose: 100.0 mg/kg/injection, schedule: Q01DX009 (ip), vehicle: Klucel (hydroxypropylcellulose) (HPC)
[3] = dose: 100.0 mg/kg/injection, schedule: Q01DX001 (ip), vehicle: carboxymethylcellulose (CMC)
[4] = dose: 200.0 mg/kg/injection, schedule: Q01DX001 (ip), vehicle: carboxymethylcellulose (CMC)
[5] = dose: 400.0 mg/kg/injection, schedule: Q01DX001 (ip), vehicle: carboxymethylcellulose (CMC)
[6] = dose: 200.0 mg/kg/injection, schedule: Q01DX009 (ip), vehicle: Klucel (hydroxypropylcellulose) (HPC)
[7] = dose: 100.0 mg/kg/injection, schedule: Q04DX003 (ip), vehicle: saline with Tween-80
[8] = dose: 200.0 mg/kg/injection, schedule: Q04DX003 (ip), vehicle: saline with Tween-80
[9] = dose: 100.0 mg/kg/injection, schedule: Q04DX003 (ip), vehicle: Klucel (hydroxypropylcellulose) (HPC)
[10] = dose: 200.0 mg/kg/injection, schedule: Q04DX003 (ip), vehicle: Klucel (hydroxypropylcellulose) (HPC)
[11] = dose: 400.0 mg/kg/injection, schedule: Q04DX003 (ip), vehicle: Klucel (hydroxypropylcellulose) (HPC)
[12] = dose: 100.0 mg/kg/injection, schedule: Q04DX002 (ip), vehicle: Klucel (hydroxypropylcellulose) (HPC)
[13] = dose: 200.0 mg/kg/injection, schedule: Q04DX002 (ip), vehicle: Klucel (hydroxypropylcellulose) (HPC)
[14] = dose: 400.0 mg/kg/injection, schedule: Q04DX002 (ip), vehicle: Klucel (hydroxypropylcellulose) (HPC)
[15] = dose: 100.0 mg/kg/injection, schedule: Q01DX009 (ip), vehicle: saline
[16] = dose: 200.0 mg/kg/injection, schedule: Q01DX009 (ip), vehicle: saline

Measured: T/C

O=[N+]([O-])c1ccc(N=C(Nc2ccc([N+](=O)[O-])cc2)c2ccccc2)cc1
inactive: dose: 100.0 mg/kg/injection, schedule: Q01DX009 (ip), vehicle: other 92 % of control | dose: 100.0 mg/kg/injection, schedule: Q04DX003 (ip), vehicle: other 96 % of control | dose: 200.0 mg/kg/injection, schedule: Q01DX009 (ip), vehicle: other 101 % of control | dose: 200.0 mg/kg/injection, schedule: Q04DX003 (ip), vehicle: other 102 % of control | dose: 400.0 mg/kg/injection, schedule: Q01DX009 (ip), vehicle: other 97 % of control | dose: 400.0 mg/kg/injection, schedule: Q04DX003 (ip), vehicle: other 91 % of control

CCc1ccc(NC(=O)c2ccco2)cc1
inactive: dose: 25.0 mg/kg/injection, schedule: Q01DX009 (ip), vehicle: Klucel (hydroxypropylcellulose) (HPC) 98 % of control | [1] 96 % of control | [2] 98 % of control

CCCCCCCCCCCCC(=O)N1CCCCCC1
inactive: dose: 100.0 mg/kg/injection, schedule: Q04DX002 (ip), vehicle: saline 102 % of control | dose: 200.0 mg/kg/injection, schedule: Q04DX002 (ip), vehicle: saline 102 % of control | dose: 400.0 mg/kg/injection, schedule: Q04DX002 (ip), vehicle: saline 91 % of control

COc1ccc([N+](=O)[O-])cc1NC(C)=O
inactive: [3] 99 % of control | [4] 99 % of control | [5] 99 % of control

O=C(NCCCl)Nc1ccc(Cl)c(Cl)c1
inactive: [3] 101 % of control | [2] 94 % of control | [4] 95 % of control | [6] 98 % of control | [5] 106 % of control

CCCCCCCCCCCCCCCCNCCCN
inactive: [7] 98 % of control | [8] 96 % of control

COc1cccc2sc3ccccc3c(=O)c12
inactive: dose: 100.0 mg/kg/injection, schedule: Q01DX009 (ip), vehicle: saline with Tween-80 102 % of control | [7] 101 % of control | dose: 200.0 mg/kg/injection, schedule: Q01DX009 (ip), vehicle: saline with Tween-80 86 % of control | [8] 102 % of control | dose: 400.0 mg/kg/injection, schedule: Q01DX009 (ip), vehicle: saline with Tween-80 87 % of control | dose: 400.0 mg/kg/injection, schedule: Q04DX003 (ip), vehicle: saline with Tween-80 87 % of control

N#C/C(=C/c1ccccc1B(O)O)C(=O)O
inactive: [9] 89 % of control | [10] 93 % of control | [11] 95 % of control

CN(C)C=Nc1ccc(F)cc1
inactive: dose: 50.0 mg/kg/injection, schedule: Q01DX001 (ip), vehicle: carboxymethylcellulose (CMC) 94 % of control | [3] 102 % of control | [4] 104 % of control | [5] 105 % of control

CC(S)CNCCSC(=O)c1ccccc1 (stereo unspecified)
inactive: dose: 100.0 mg/kg/injection, schedule: Q04DX003 (ip), vehicle: acetone 91 % of control | dose: 200.0 mg/kg/injection, schedule: Q04DX003 (ip), vehicle: acetone 102 % of control | dose: 400.0 mg/kg/injection, schedule: Q04DX003 (ip), vehicle: acetone 97 % of control

CC(=O)O[C@@H]1CC[C@]2(C)C(=CC[C@@H]3C4CC5O[C@]6(CCC(C)CN6)C(C)C5[C@]4(C)CCC32)C1 (stereo partly specified)
inactive: [12] 93 % of control | [13] 89 % of control | [14] 93 % of control

O=C(O)CNc1ccccc1C(=O)O
inactive: [2] 105 % of control | [9] 102 % of control | [6] 98 % of control | [10] 97 % of control | dose: 400.0 mg/kg/injection, schedule: Q01DX009 (ip), vehicle: Klucel (hydroxypropylcellulose) (HPC) 92 % of control | [11] 96 % of control

N/C(=N\O)c1ccc(Cl)cc1
inactive: [7] 104 % of control | [8] 98 % of control

O=C(Nc1ccc(Cl)cc1)Oc1ccc(C2CCCCC2)cc1
inactive: [12] 100 % of control | [13] 107 % of control | [14] 110 % of control

Cc1c(C(=O)O)cc2n(c1=O)Cc1cc3ccccc3nc1-2
inactive: [15] 90 % of control | dose: 100.0 mg/kg/injection, schedule: Q04DX003 (ip), vehicle: saline 95 % of control | [16] 86 % of control | dose: 200.0 mg/kg/injection, schedule: Q04DX003 (ip), vehicle: saline 106 % of control | dose: 400.0 mg/kg/injection, schedule: Q04DX003 (ip), vehicle: saline 98 % of control

OC1COC(CCl)OC1C1OC(CCl)OCC1O (stereo unspecified)
inactive: [12] 96 % of control | [13] 96 % of control | [14] 96 % of control

O=C(Nc1ccc(Br)cc1)c1cc(Br)cc(Br)c1O
inactive: dose: 1.56 mg/kg/injection, schedule: Q04DX002 (ip), vehicle: saline 100 % of control | dose: 3.12 mg/kg/injection, schedule: Q04DX002 (ip), vehicle: saline 100 % of control | dose: 6.25 mg/kg/injection, schedule: Q04DX002 (ip), vehicle: saline 97 % of control | dose: 12.5 mg/kg/injection, schedule: Q04DX002 (ip), vehicle: saline 103 % of control and 107 % of control | dose: 25.0 mg/kg/injection, schedule: Q04DX002 (ip), vehicle: saline 104 % of control and 89 % of control

C=CS(=O)(=O)CCCCCCC
inactive: dose: 75.0 mg/kg/injection, schedule: Q01DX001 (ip), vehicle: saline 96 % of control | dose: 150.0 mg/kg/injection, schedule: Q01DX001 (ip), vehicle: saline 94 % of control | dose: 300.0 mg/kg/injection, schedule: Q01DX001 (ip), vehicle: saline 97 % of control

COC(=O)c1nc[nH]c1N=[N+]=[N-]
inactive: dose: 100.0 mg/kg/injection, schedule: Q01DX001 (ip), vehicle: other 97 % of control

CCN(CC)CCCOC(=O)c1ccccc1
inactive: dose: 50.0 mg/kg/injection, schedule: Q01DX009 (ip), vehicle: saline 96 % of control | [15] 100 % of control | [16] 100 % of control

CCC1NC(C)(C)CC1=C(C)C (stereo unspecified)
inactive: dose: 3.13 mg/kg/injection, schedule: Q01DX009 (ip), vehicle: saline 101 % of control | dose: 6.25 mg/kg/injection, schedule: Q01DX009 (ip), vehicle: saline 96 % of control | dose: 12.5 mg/kg/injection, schedule: Q01DX009 (ip), vehicle: saline 96 % of control

CNc1nc(N)nc2c1nc(Cl)n2C1OC(CO)C(O)C1O (stereo unspecified)
inactive: dose: 100.0 mg/kg/injection, schedule: Q01DX001 (ip), vehicle: saline 100 % of control | dose: 200.0 mg/kg/injection, schedule: Q01DX001 (ip), vehicle: saline 92 % of control | dose: 400.0 mg/kg/injection, schedule: Q01DX001 (ip), vehicle: saline 96 % of control

CC(C)(C)C(=O)OCn1cnc2c(=N)n(O)cnc21
inactive: [1] 103 % of control | [2] 100 % of control | [9] 97 % of control | [6] 101 % of control | [10] 108 % of control

CCCCCCCCCCCCCCC/C(CC)=N/Nc1ccc([N+](=O)[O-])cc1[N+](=O)[O-]
inactive: dose: 25.0 mg/kg/injection, schedule: Q01DX001 (ip), vehicle: Klucel (hydroxypropylcellulose) (HPC) 103 % of control | dose: 50.0 mg/kg/injection, schedule: Q01DX001 (ip), vehicle: Klucel (hydroxypropylcellulose) (HPC) 101 % of control | dose: 100.0 mg/kg/injection, schedule: Q01DX001 (ip), vehicle: Klucel (hydroxypropylcellulose) (HPC) 111 % of control
